Experimental data reported in PubChem BioAssay AID489035 (Sanford-Burnham Center for Chemical Genomics, 2010).
Calls of active or inactive are those of the source. No rule for the calls is given here.

What follows are compounds tested on Jurkat NF-kB reporter, TCR-induced, luciferase luminescence (assay: inhibitors of TCR-driven NF-kB activation, dose response, Jurkat cells, luminescence (AID 489035)).
CCC(C)C(=O)N[C@@H](c1ccccc1)[C@@H](O)C(=O)O[C@H]1C[C@@]2(O)[C@@H](OC(=O)c3ccccc3)C3[C@](C)(C(=O)[C@H](OC(C)=O)C(=C1C)C2(C)C)[C@@H](O)C[C@H]1OC[C@@]31OC(C)=O (some centres undefined) was tested, and the IC50 was > 80 µM (inactive).
For Cc1ccc(C(=O)c2cc([N+](=O)[O-])ccc2N2CCCCC2)c(C)c1, the IC50 was > 80 µM (inactive).
In the case of COc1ccccc1NC(=O)C1=C(C)Nc2nc3ccccc3n2C1c1cccs1 (centres undefined), the IC50 is reported as 52.3 µM (inactive).
For CCOCCOC(=O)c1[nH]c2c(c1C)C(=O)CC(c1cccs1)C2 (centres undefined), the IC50 was > 80 µM (inactive).
For CC(=O)O[C@@]12CO[C@@H]1C[C@@H](O)[C@@]1(C)C(=O)[C@H](O)C3=C(C)[C@@H](OC(=O)[C@H](O)[C@@H](NC(=O)c4ccccc4)c4ccccc4)C[C@@](O)([C@@H](OC(=O)c4ccccc4)C12)C3(C)C (some centres undefined), the IC50 was < 0.16 µM.
With Cc1ccc(C(=O)c2cc([N+](=O)[O-])ccc2N2CCOCC2)cc1C the IC50 was 19.6 µM.
In the case of COC(=O)c1cn(NC(=O)c2cc([N+](=O)[O-])ccc2F)c(=O)c2ccccc12, the IC50 is reported as 0.46 µM.
In the case of COc1ccccc1-c1nnc2n1N=C(c1ccc(O)c(O)c1)CS2, the IC50 is reported as 7.43 µM.
In the case of Cc1cc(C)nc(SCC(=O)Nc2ccnc3ccccc23)n1, the IC50 is reported as > 80 µM (inactive).
Cc1ccc2c(c1)sc(-c1ccc(N(C)C)cc1)[n+]2C was tested, and the IC50 was > 80 µM (inactive).
In the case of O=c1oc2ccccc2cc1-c1cn(-c2ccccc2)c(=S)[nH]1, the IC50 is reported as 13 µM.
In the case of Cc1ccc2c(c1)C=CC(C#N)N2C(=O)c1ccccc1 (centres undefined), the IC50 is reported as > 80 µM (inactive).
For O=C1C=CC(O)(c2cc(=O)c3c(O)cc(O)cc3o2)C=C1, the IC50 was 2.21 µM.
Compound CC1=NNC(=O)/C1=C\c1cn(-c2ccccc2)nc1-c1ccc(Cl)cc1 has an IC50 of 1.13 µM.
For CCC(O)C1CCN(C(=O)c2cc(COc3ccc4ncccc4c3)on2)CC1 (centres undefined), the IC50 was 0.69 µM.
In the case of CCOc1ccc(Nc2cc(C)nc(-n3nc(C)cc3C)n2)cc1, the IC50 is reported as > 80 µM (inactive).
For COc1ccc(OC)c(COC(=O)c2cc([N+](=O)[O-])ccc2N2CCOCC2)c1, the IC50 was 71.8 µM (inactive).
For CC1=CC(C)(C)N(S(=O)(=O)c2ccc(C)cc2)c2cc(C)ccc21, the IC50 was 6.77 µM.
Compound COc1ccccc1C(=O)Nc1nc2ccccc2s1 has an IC50 of 0.77 µM.
With Cc1ccc(C)c(N=Nc2ccc(O)c3ncccc23)c1 the IC50 was 28.3 µM (inactive).
COc1ccc(NC(=O)/C(Cl)=C(/Cl)S(=O)Cc2ccccc2Cl)cn1 (centres undefined) gave an IC50 of 0.64 µM.
For CCOC(=O)Nc1nc(-c2ccccc2)c(C(=O)c2ccccc2)s1, the IC50 was > 80 µM (inactive).
O=C(Nc1ccncc1)C1CCCN(S(=O)(=O)c2cccc3cccnc23)C1 (centres undefined) was tested, and the IC50 was > 80 µM (inactive).
With Cc1ccc(S(=O)(=O)NCc2ccncc2)c(C)c1C the IC50 was > 80 µM (inactive).
C=CCOC(=O)c1[nH]c2c(c1C)C(=O)CC(c1ccco1)C2 (centres undefined) was tested, and the IC50 was > 80 µM (inactive).
With COc1ccc(/C=N\NC(=O)c2ccccc2F)cc1COc1ccc(F)cc1F the IC50 was > 80 µM (inactive).
In the case of COc1ccc(CS(=O)/C(Cl)=C(/Cl)C(=O)Nc2ccc(OC)nc2)cc1 (centres undefined), the IC50 is reported as 0.54 µM.
With O=C(c1ccccc1)c1nn(-c2ccc(Cl)cc2)c(=O)cc1C(F)(F)F the IC50 was 1.25 µM.
With COc1cc([C@@H]2c3cc4c(cc3[C@H](O)[C@H]3COC(=O)[C@H]23)OCO4)cc(OC)c1OC the IC50 was > 80 µM (inactive).
For CCOc1ccccc1NC(=O)CN(c1ccc(OC)cc1)S(=O)(=O)c1c(C)noc1C, the IC50 was > 80 µM (inactive).
For COc1cc2c(c(OC)c1OC)-c1ccc(OC)c(=O)cc1[C@@H](N(C)CC#CCO)CC2, the IC50 was > 80 µM (inactive).
O=C(Nc1ccc(S(=O)(=O)N2CCCCC2)cc1)c1ccc(CN2CCOCC2)cc1 was tested, and the IC50 was 16.6 µM.
CCCCCCCCCCCCCCCC[n+]1ccc(C(N)=O)cc1 showed an IC50 of 1.49 µM.
For CCOC(=O)c1ccccc1NC(=O)Cn1c(-c2nonc2N)nc2ccccc21, the IC50 was > 80 µM (inactive).
COc1cccc(/C=N/Nc2ccc(C(=O)O)cc2)c1O gave an IC50 of 0.28 µM.
Work on O=C1CC(c2cc(Br)ccc2F)c2cc3c(cc2N1)CCC3 (centres undefined) yielded an IC50 of 15.6 µM.
For O=C1C=CCC(/C=C/c2ccccc2)O1 (centres undefined), the IC50 was 0.17 µM.
In the case of Cc1nc(Sc2nnnn2C)c2c3c(sc2n1)CCC3, the IC50 is reported as 5.19 µM.
For Cn1nc(CC(=O)Nc2ccc(N3CCN(C(=O)OC(C)(C)C)CC3)cc2)c2ccccc2c1=O, the IC50 was > 80 µM (inactive).
COc1cc(/C=C/C(=O)c2ccc([N+](=O)[O-])o2)ccc1O showed an IC50 of 1.86 µM.
For COc1cccc(/C=N/NC(=O)c2[nH]nc3c2CCc2ccccc2-3)c1O, the IC50 was 59.5 µM (inactive).
Compound CCC(C)(C)c1ccc(OCCCC[n+]2cccc(C)c2C)c(C(C)(C)CC)c1 has an IC50 of 4.76 µM.
With Cc1ccnc2c1ccc1c(C)ccnc12 the IC50 was 2.42 µM.
O=S(=O)(c1cc(F)ccc1F)N1CCN(c2ncnc3ccccc23)CC1 was tested, and the IC50 was > 80 µM (inactive).
CCn1cc(C(=O)NC2CCCc3c2cnn3-c2cccc(C)c2C)cn1 (centres undefined) was tested, and the IC50 was > 80 µM (inactive).
With CCOC(=O)CSC1=C(C#N)C(c2ccc(C)s2)CC(=O)N1 (centres undefined) the IC50 was > 80 µM (inactive).
With CC(=O)N1c2ccc(S(=O)(=O)N3CCC(C(=O)Nc4cccc(C)n4)CC3)cc2CC1C (centres undefined) the IC50 was > 80 µM (inactive).
With CC(C)c1oc(=O)cc2c1[C@@H](O)[C@H]1OC(=O)[C@@]3(C)CC[C@@H](O)[C@@]2(C)C13 (some centres undefined) the IC50 was 2.54 µM.
For Clc1cccc(Cl)c1/C=N/Nc1c(Cl)cncc1Cl, the IC50 was > 80 µM (inactive).
